This passage reports Ki results from patent US7358268B2, “Imidazole derivatives as factor Xa inhibitors” (Sanofi-Aventis Deutschland GmbH, priority 2002, dated 2008).

pKi: −log10 of the molar value.

The target of the experiment is T1, human factor Xa (Homo sapiens, UniProt P00742).
T1 construct: 25 μl human factor Xa (Enzyme Research Laboratories, Inc; South Bend, Ind.) in TBS-PEG; purchased Enzyme Research Laboratories, Inc; South Bend, Ind
T1 sequence (P00742 235-488 limits assumed): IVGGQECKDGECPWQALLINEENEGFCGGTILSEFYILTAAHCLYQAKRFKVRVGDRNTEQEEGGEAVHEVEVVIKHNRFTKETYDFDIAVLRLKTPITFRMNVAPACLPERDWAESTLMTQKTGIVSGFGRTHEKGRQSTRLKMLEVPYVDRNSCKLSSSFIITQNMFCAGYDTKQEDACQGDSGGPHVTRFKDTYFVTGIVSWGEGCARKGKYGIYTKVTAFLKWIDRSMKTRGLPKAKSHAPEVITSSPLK
T1 sequence (P00742 41-179 partner limits assumed): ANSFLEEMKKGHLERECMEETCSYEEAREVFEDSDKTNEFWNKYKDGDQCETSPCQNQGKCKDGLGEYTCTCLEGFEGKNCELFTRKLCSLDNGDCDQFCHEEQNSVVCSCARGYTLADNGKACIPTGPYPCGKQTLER
Description: Factor Xa assay (chromogenic, purified enzyme). Type of experiment: biochemical. To be noted: inhibition constant for factor Xa; chromogenic substrate S-2765 140 μM, enzyme 0.5 nM, 25° C., pH 7.8; Ki calculated from IC50 (Ki=IC50/{1+(substrate concentration/Km)}); read-out: Ki(FXa). Here is the method: The ability of the compounds of the formula I to inhibit factor Xa or factor VIIa or other enzymes like thrombin, plasmin, or trypsin can be assessed by determining the concentration of the compound of the formula I that inhibits enzyme activity by 50%, i. e. the IC50 value, which was related to the inhibition constant Ki. Purified enzymes were used in chromogenic assays. The concentration of inhibitor that causes a 50% decrease in the rate of substrate hydrolysis was determined by linear regression after plotting the relative rates of hydrolysis (compared to the uninhibited control) versus the log of the concentration of the compound of formula I. For calculating the inhibition constant Ki, the IC50 value was corrected for competition with substrate using the formula Ki=IC50/{1+(substrate concentration/Km)} wherein Km is the Michaelis-Menten constant (Chen and Prusoff, Biochem. Pharmacol. 22 (1973), 3099-3108; I. H. Segal, Enzyme Kinetics, 1975, John Wiley & Sons, New York, 100-125; which were incorporated herein by reference). a) Factor Xa Assay
In the assay for determining the inhibition of factor Xa activity TBS-PEG buffer (50 mM Tris-HCl, pH 7.8, 200 mM NaCl, 0.05% (w/v) PEG-8000, 0.02% (w/v) NaN3) was used. The IC50 was determined by combining in appropriate wells of a Costar half-area microtiter plate 25 μl human factor Xa (Enzyme Research Laboratories, Inc.; South Bend, Ind.) in TBS-PEG; 40 μl 10% (v/v) DMSO in TBS-PEG (uninhibited control) or various concentrations of the compound to be tested diluted in 10% (v/v) DMSO in TBS-PEG; and substrate S-2765 (N(α)-benzyloxycarbonyl-D-Arg-Gly-L-Arg-p-nitroanilide; Kabi Pharmacia, Inc.; Franklin, Ohio) in TBS-PEG.
The assay was performed by pre-incubating the compound of formula I plus enzyme for 10 min. Then the assay was initiated by adding substrate to obtain a final volume of 100 μl. The initial velocity of chromogenic substrate hydrolysis was measured by the change in absorbance at 405 nm using a Bio-tek Instruments kinetic plate reader (Ceres UV900HDi) at 25° C. during the linear portion of the time course (usually 1.5 min after addition of substrate). The enzyme concentration was 0.5 nM and substrate concentration was 140 μM.
Turning to `COC(=O)c1cn(Cc2cc(-c3ccc(Cl)s3)on2)c(C(=O)NC2CCN(C(C)C)CC2)n1` [Example 40, 1-[5-(5-Chloro-thiophen-2-yl)-isoxazol-3-ylmethyl]-2-(1-isopropyl-piperidin-4-ylcarbamoyl)-1H-imidazole-4-carboxylic acid methyl ester], the pKi is 7.70.
As for `CC(C)N1CCC(NC(=O)c2nc(C(N)=O)cn2Cc2cc(-c3ccc(Cl)s3)on2)CC1` [Example 41, 1-[5-(5-Chloro-thiophen-2-yl)-isoxazol-3-ylmethyl]-1H-imidazole-2,4-dicarboxylic acid 4-amide 2-[(1-isopropyl-piperidin-4-yl)-amide]], the negative-log Ki (pKi) was 7.34.
Consider `CC(C)N1CCC(NC(=O)c2nc(C(=O)N(C)CCO)cn2Cc2cc(-c3ccc(Cl)s3)on2)CC1` [Example 42], for which the pKi is 6.90.
Turning to `CC(C)N1CCC(NC(=O)c2nc(C(=O)N3CC(O)C3)cn2Cc2cc(-c3ccc(Cl)s3)on2)CC1` [Example 43, 1-[5-(5-Chloro-thiophen-2-yl)-isoxazol-3-ylmethyl]-4-(3-hydroxy-azetidine-1-carbonyl)-1H-imidazole-2-carboxylic acid (1-isopropyl-piperidin-4-yl)-amide], the pKi is 7.21.
`CC(C)N1CCC(NC(=O)c2nc(C(=O)N(C)C)cn2Cc2cc(-c3ccc(Cl)s3)on2)CC1` [Example 44, 1-[5-(5-Chloro-thiophen-2-yl)-isoxazol-3-ylmethyl]-1H-imidazole-2,4-dicarboxylic acid 4-dimethylamide 2-[(1-isopropyl-piperidin-4-yl)-amide]]: the pKi was 6.87.
For `CC(C)N1CCC(NC(=O)c2nc(C(=O)OCC3CC3)cn2Cc2cc(-c3ccc(Cl)s3)on2)CC1` [Example 45, 1-[5-(5-Chloro-thiophen-2-yl)-isoxazol-3-ylmethyl]-2-(1-isopropyl-piperidin-4-ylcarbamoyl)-1H-imidazole-4-carboxylic acid cyclopropylmethyl ester], the pKi is 7.24.
The value for `CC(C)N1CCC(NC(=O)c2nc(C(=O)OCC(=O)OC(C)(C)C)cn2Cc2cc(-c3ccc(Cl)s3)on2)CC1` [Example 46, 1-[5-(5-Chloro-thiophen-2-yl)-isoxazol-3-ylmethyl]-2-(1-isopropyl-piperidin-4-ylcarbamoyl)-1H-imidazole-4-carboxylic acid tert-butoxycarbonylmethyl ester] was 6.89.
The value for `CC(C)N1CCC(NC(=O)c2nc(C(=O)NCCO)cn2Cc2cc(-c3ccc(Cl)s3)on2)CC1` [Example 47] was 7.11.
Turning to `COC1CN(C(=O)c2cn(Cc3cc(-c4ccc(Cl)s4)on3)c(C(=O)NC3CCN(C(C)C)CC3)n2)C1` [Example 48, 1-[5-(5-Chloro-thiophen-2-yl)-isoxazol-3-ylmethyl]-4-(3-methoxy-azetidine-1-carbonyl)-1H-imidazole-2-carboxylic acid (1-isopropyl-piperidin-4-yl)-amide], the pKi was 7.04.
Regarding `COC(=O)CCc1cn(Cc2cc(-c3ccc(Cl)s3)on2)c(C(=O)NC2CCN(C(C)C)CC2)n1` [Example 49, 3-[1-[5-(5-Chloro-thiophen-2-yl)-isoxazol-3-ylmethyl]-2-(1-isopropyl-piperidin-4-ylcarbamoyl)-1H-imidazol-4-yl]-propionic acid methyl ester], the pKi is 7.43.
Turning to `CC(C)N1CCC(NC(=O)c2nccn2Cc2cc(-c3ccc(Cl)s3)on2)CC1` [Example 60, 1-[5-(5-Chloro-thiophen-2-yl)-isoxazol-3-ylmethyl]-1H-imidazole-2-carboxylic acid (1-isopropyl-piperidin-4-yl)-amide], the negative logarithm of the Ki (pKi) is 7.31.
As to `O=C(NCC1CCN(c2ccncc2)CC1)c1nccn1Cc1cc(-c2ccc(Cl)s2)on1` [Example 63, 1-[5-(5-Chloro-thiophen-2-yl)-isoxazol-3-ylmethyl]-1H-imidazole-2-carboxylic acid (3,4,5,6-tetrahydro-2H-[1,4′]bipyridinyl-4-ylmethyl)-amide], the pKi was 6.19.
The value for `O=C(NC1CCN(c2ccncc2)CC1)c1nccn1Cc1cc(-c2ccc(Cl)s2)on1` [Example 65, 1-[5-(5-Chloro-thiophen-2-yl)-isoxazol-3-ylmethyl]-1H-imidazole-2-carboxylic acid (3,4,5,6-tetrahydro-2H-[1,4′]bipyridinyl-4-yl)-amide] was 6.93; that for `CC(C)N1CCC(NC(=O)c2cnc(C(=O)N3CCCOCC3)n2Cc2cc(-c3ccc(Cl)s3)on2)CC1` [Example 71, 3-[5-(5-Chloro-thiophen-2-yl)-isoxazol-3-ylmethyl]-2-(perhydro-1,4-oxazepine-4-carbonyl)-3H-imidazole-4-carboxylic acid (1-isopropyl-piperidin-4-yl)-amide] was 7.29.
